# Results taken from US6908912B2, “Pyrithione biocides enhanced by zinc metal ions and organic amines” (priority 1999, dated 2005).
# Values joined by “and” are separate entries in the source; they are usually repeats but may differ in a detail not shown here. Equal values may be shown once. Read-outs that look alike come from different tables or passages of the source.
# What was measured:
# [1] = system: Fusarium sp. and Cephalosporium sp. metalworking fluid field isolates; assay: Efficacy against fungi in diluted (1:20) metalworking fluids, flask test (Examples 1-40); type: cell-based
# [2] = Solubility and stability of concentrated mixtures of sodium pyrithione, ZnCl2 and organic amines (Example 55); details: for solubility and stability of mixture after 24 and 72 hours: mixtures of sodium pyrithione, ZnCl2 and the named amine
# [3] = system: Fusarium sp and Cephalosporium sp.; assay: Prevention of fungal contamination of metalworking fluid, repeated challenge (Example 53); type: cell-based, fungi
# [4] = system: Fusarium sp and Cephalosporium sp.; assay: Culture tube test with formaldehyde releasing biocide, viable fungal counts (Example 52); type: cell-based, fungi
# [5] = system: Klebsiella pnenmoniae bacteria; details: cited from earlier work
# [6] = Blue discoloration of metalworking fluids in the presence of iron ions, visual inspection (Example 54); type: physicochemical
# [7] = system: Pseudomonas aeruginosa, Escherichia coli, Pseudomonas fluorescens, Pseudomonas rubescens, and Pseudomonas putida; type: cell-based, bacteria
# [8] = system: Pseudomonas aeruginosa 9027, Escherichia coli 8739, Pseudomonas fluorescens 12201, Pseudomonas rubescens 12202, and Pseudomonas putida; type: cell-based, bacteria
# [9] = Semi-Synthetic Fluid diluted 1:20, final 100 PPM NaPT, 21 PPM ZnCl2, 600 PPM amine or 1000 PPM Mixture as applicable
# [10] = Soluble Oil diluted 1:20, final 100 PPM NaPT, 21 PPM ZnCl2, 600 PPM amine or 1000 PPM Mixture as applicable
# [11] = Synthetic Fluid diluted 1:20, final 100 PPM NaPT, 21 PPM ZnCl2, 600 PPM amine or 1000 PPM Mixture as applicable
# [12] = Semi-synthetic MWF, Triazine 196 PPM ai TZ
# [13] = Semi-synthetic MWF, Triazine 393 PPM ai TZ
# [14] = Semi-synthetic MWF, Triazine 785 PPM ai TZ
compound,measurement,setting,value
1-amino-2-propanol [Mixture 1A2P],Fungi/ml Day 1,[1]; [9],4.7 × 10^4 Fungi/ml
same,Fungi/ml Day 4,[1]; [9],5.0 × 10^4 Fungi/ml
same,Fungi/ml Day 1,[1]; [10],4.6 × 10^4 Fungi/ml
same,Fungi/ml Day 4,[1]; [10],2.5 × 10^4 Fungi/ml
same,Fungi/ml Day 1,[1]; [11],5.5 × 10^4 Fungi/ml
same,Fungi/ml Day 4,[1]; [11],3.6 × 10^4 Fungi/ml
"NCCCN [1,3-Diaminopropane]",Appearance at 24 Hrs,[2],S
same,Appearance at 72 Hrs,[2],S
NCCOCCO [2(2-Aminoethoxy)ethanol],solubility and stability of mixture after 24 and 72 hours,[2]; room temperature,precipitates
"CCC(N)(CO)CO [2-Amino-2-ethyl-1,3-propanediol]",solubility and stability of mixture after 24 and 72 hours,[2]; room temperature,precipitates
COCCCN [3-methoxypropylamine],solubility and stability of mixture after 24 and 72 hours,[2]; room temperature,soluble mixtures after 24 hours but not after 72 hours
NCCNCCN [Diethylenetriamine],Appearance at 24 Hrs,[2],S
same,Appearance at 72 Hrs,[2],S
CC(O)CNCC(C)O (stereo not drawn) [Diisopropanolamine],solubility and stability of mixture after 24 and 72 hours,[2]; room temperature,precipitates
"NCCO [MEA, monoethanolamine]",Fungi/ml Day 1,[1]; [9],4.3 × 10^4 Fungi/ml
same,Fungi/ml Day 4,[1]; [9],7.0 × 10^4 Fungi/ml
same,Fungi/ml Day 1,[1]; [10],2.9 × 10^4 Fungi/ml
same,Fungi/ml Day 4,[1]; [10],1.0 × 10^4 Fungi/ml
same,Fungi/ml Day 1,[1]; [11],4.7 × 10^4 Fungi/ml
same,Fungi/ml Day 4,[1]; [11],3.6 × 10^4 Fungi/ml
CCCNCCO [Propylethanolamine],Appearance at 24 Hrs,"[2]; mixture of NaPT 10.00, ZnCl2 1.74, organic amine(s) 60.50, water 27.76 weight %, room temperature",S
"OCCN1CN(CCO)CN(CCO)C1 [Triazine, hexahydro-1,3,5-tris(2-hydroxyethyl)-s-triazine]",Fungi/ml Week 4,[3]; [12],3.6 × 10^4 Fungi/ml
same,Fungi/ml Week 9,[3]; [12],6.2 × 10^4 Fungi/ml
same,Fungi/ml Week 4,[3]; [13],0 Fungi/ml
same,Fungi/ml Week 9,[3]; [13],70 Fungi/ml
same,Fungi/ml Week 4,[3]; [14],0 Fungi/ml
same,Fungi/ml Week 9,[3]; [14],0 Fungi/ml
same,Fungi/ml Day 3,"[4]; Soluble oil MWF, Triazine 49 PPM ai TZ",3.0 × 10^3 Fungi/ml
same,Fungi/ml Day 3,"[4]; Soluble oil MWF, Triazine 98 PPM ai TZ",1.1 × 10^3 Fungi/ml
same,Fungi/ml Day 3,"[4]; Soluble oil MWF, Triazine 196 PPM ai TZ",100 Fungi/ml
same,Fungi/ml Day 3,"[4]; Soluble oil MWF, Triazine 393 PPM ai TZ",0 Fungi/ml
same,Fungi/ml Day 3,"[4]; Soluble oil MWF, Triazine 589 PPM ai TZ",0 Fungi/ml
same,Fungi/ml Day 3,"[4]; Soluble oil MWF, Triazine 785 PPM ai TZ",0 Fungi/ml
"On1ccccc1=S [pyrithione, 1-hydroxy-2-pyridinethione]",activity against Klebsiella pnenmoniae bacteria,[5],favorable enhancement
sodium pyrithione [NaPT],Fungi/ml Week 4,[3],8.9 × 10^4 Fungi/ml
same,Fungi/ml Week 9,[3],5.6 × 10^4 Fungi/ml
same,Initial Blue Color,[6],light and dark and blue
same,Bacteria/ml Week 4,[7],3.2 × 10^6 Bacteria/ml
same,Bacteria/ml Week 9,[7],6.1 × 10^6 Bacteria/ml
same,Bacteria/ml Day 1,[8],4.0 × 10^5 Bacteria/ml and 5.2 × 10^6 Bacteria/ml and 4.3 × 10^6 Bacteria/ml
same,Bacteria/ml Day 4,[8],3.0 × 10^5 Bacteria/ml and 3.7 × 10^7 Bacteria/ml and 6.0 × 10^6 Bacteria/ml
same,Fungi/ml Day 3,[4],7.7 × 10^4 Fungi/ml and 4.1 × 10^4 Fungi/ml
same,Fungi/ml Day 1,[1],5.1 × 10^4 Fungi/ml and 7.0 × 10^4 Fungi/ml and 5.7 × 10^4 Fungi/ml
zinc chloride [ZnCl2],Fungi/ml Day 1,[1],7.7 × 10^4 Fungi/ml and 5.9 × 10^4 Fungi/ml and 5.2 × 10^4 Fungi/ml
same,Fungi/ml Day 4,[1],4.3 × 10^4 Fungi/ml and 3.2 × 10^4 Fungi/ml and 3.1 × 10^4 Fungi/ml
